The assay concerns the target Human immunodeficiency virus type 1 integrase (Human immunodeficiency virus 1, UniProt Q7ZJM1).

A value given as a limit tells only on which side of the number the result lay.

Human immunodeficiency virus type 1 integrase, sequence (Q7ZJM1 whole entry): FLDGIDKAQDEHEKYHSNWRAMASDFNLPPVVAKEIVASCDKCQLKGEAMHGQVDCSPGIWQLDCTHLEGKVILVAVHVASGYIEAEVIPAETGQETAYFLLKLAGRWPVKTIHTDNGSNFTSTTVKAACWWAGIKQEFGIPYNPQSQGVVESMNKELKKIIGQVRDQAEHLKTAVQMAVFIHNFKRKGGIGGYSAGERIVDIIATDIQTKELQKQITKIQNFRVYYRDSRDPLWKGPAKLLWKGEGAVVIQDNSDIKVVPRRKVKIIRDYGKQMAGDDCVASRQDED
Description: Inhibitory activity against HIV-1 integrase

By IC50 is commonly meant the concentration needed to halve the response being measured. Read a low IC50 as inhibition by little substance. Turning to `COC(=O)c1ccc(CC(=O)c2c(C)cc(O)c(C=O)c2O)c(C)c1O`, the IC50 is 123 µM.

Regarding `CC(CCC(=O)O)C1CC[C@H]2[C@@H]3C(OC(=O)/C=C/c4ccc(O)c(O)c4)CC4CC(OC(=O)/C=C/c5ccc(O)c(O)c5)CC[C@]4(C)[C@H]3CC(OC(=O)/C=C/c3ccc(O)c(O)c3)[C@]12C` (stereo partly drawn), inhibition was half-maximal at 0.97 µM (IC50).

`CC(Cc1ccc(O)c(O)c1)(C(=O)O)C(C)(Cc1ccc(O)c(O)c1)C(=O)O` (stereo in doubt; form 1) returned a half-inhibitory concentration (IC50) of 0.44 µM.

As to `CC1C=C(NC(=O)C2=CC(NC(=O)C3=CC(NC(=O)c4ccc(C(=O)NC5=CC(C)C(C(=O)NC6=CC(C)C(C(=O)NC7=CC(C)C(C(=O)NCCC(=N)N)=C7)=C6)=C5)nc4)=CC3C)=CC2C)C=C1C(=O)NCCC(=N)N` (stereo not drawn), half-maximal inhibition (IC50) required 0.1 µM.

Regarding `N#CCCc1cccc(/C(O)=C\C(=O)C(=O)O)c1`, 1.5 µM corresponded to half-maximal inhibition (IC50).

On to `CCCCCc1cc(O)cc2c1Oc1c(C=O)c(O)c(Cl)c(C(=O)CCCC)c1C(=O)O2`, for which the IC50 was 33.6 µM.

The compound `[N-]=[N+]=NC1CCC(N=[N+]=[N-])c2cc(/C(O)=C\C(=O)C(=O)O)ccc21` (stereo not drawn) had an IC50 of 0.32 µM. This IC50 lies about 100-fold lower than the previous one.

On to `CC1C=C(NC(=O)C2=CC(NC(=O)C3=CC(N(C)C(=O)c4ccc(C(=O)N(C)C5=CC(C)C(C(=O)NC6=CC(C)C(C(=O)NC7=CC(C)C(C(=O)NCCCN(C)C)=C7)=C6)=C5)cc4)=CC3C)=CC2C)C=C1C(=O)NCCCN(C)C` (stereo not drawn), for which the IC50 came out at 0.07 µM.

Regarding `CN(C)Cc1ccc2n1Cc1ccccc1SC2c1ccc(F)cc1` (stereo not drawn), the IC50 was 1000 µM.

The compound `COc1cc(C)c2c(c1C)OC(=O)c1c(C)c(Cl)c(O)c(C=O)c1O2` yielded an IC50 of 2.1 µM.

As for `CC1=NN(C(=O)c2ccccc2O)C(=O)/C1=C\c1cccc(O)c1`, it took 7.4 µM to reach half-maximal inhibition (IC50).

As for `O=C1C(O)=C(C(C2=C(O)C(=O)c3ccccc3C2=O)c2ccc(Cl)cc2)C(=O)c2ccccc21`, the IC50 is above 100 µM.

Regarding `COc1cc(C(C2=C(O)C(=O)c3ccccc3C2=O)C2C(=O)c3ccccc3C(=O)C2O)cc(Br)c1O` (stereo not drawn), it took 20 µM to reach half-maximal inhibition (IC50). In other words, the double-digit micromolar range.

For the compound `COc1ccc(/C=C2\C(=O)N(C(=O)c3ccccc3O)N=C2C)cc1`, half-maximal inhibition (IC50) required 0.6 µM.

`CC1C=C(NC(=O)C2=CC(NC(=O)C3=CC(NC(=O)c4ccc(C(=O)NC5=CC(C)C(C(=O)NC6=CC(C)C(C(=O)NC7=CC(C)C(C(=O)NCCC(=N)N)=C7)=C6)=C5)cc4)=CC3C)=CC2C)C=C1C(=O)NCCC(=N)N` (stereo not drawn) had an IC50 of 0.09 µM.

For the compound `[N-]=[N+]=NC1CC(N=[N+]=[N-])c2cc(/C(O)=C\C(=O)C(=O)O)ccc21` (stereo not drawn), the IC50 is 0.36 µM.

`O=C(NNCC(O)COc1ccccc1)c1ccccc1O` (stereo not drawn) came in with an IC50 above 200 µM.

Compound `[N-]=[N+]=NCc1ccc(/C(O)=C\C(=O)C(=O)O)cc1CN=[N+]=[N-]` came in with an IC50 of 0.26 µM. In other words, the sub-micromolar range.

`O=C1c2ccccc2SCC2CSC(c3ccccc3)N12` (stereo not drawn) gave an IC50 of 322 µM.

`CC1=NN(C(=O)c2ccc(Cl)cc2)C(=O)/C1=C\c1ccc(O)cc1` showed an IC50 above 293 µM.

`O=C(O)C(=O)/C=C(\O)c1cc(OCc2ccccc2)cc(OCc2ccccc2)c1` gave an IC50 of 0.059 µM.

In turn, `O=C(/C=C/c1ccc(O)c(O)c1)NCC(OC(=O)/C=C/c1ccc(O)c(O)c1)C(=O)O` (stereo not drawn) returned an IC50 of 0.37 µM.

`CC(Cc1ccc(O)c(O)c1)(C(=O)O)C(C)(Cc1ccc(O)c(O)c1)C(=O)O` (stereo in doubt; form 2) registered an IC50 of 0.23 µM.

Values taken from ChEMBL document CHEMBL1147625, “HIV-1 integrase pharmacophore model derived from diverse classes of inhibitors” (Bioorg Med Chem Lett, 2004).
